Results as given in patent US4877727A, “Substrate for determining leucine aminopeptidase or gamma-glutamyltranspeptase activity” (Kyowa Medex Co., Ltd., priority 1984, dated 1989).
Converted amounts (≈) assume the structure as drawn.

What was measured:
Stability of pigment = assay type: physicochemical
Solubility of substrate = assay type: physicochemical; conditions: read-out: S: Solubility
[1] = Maximum wavelength of formed pigment; assay type: physicochemical
Description: 50 μl of 1 mM each free compound was added to 3 ml of 0.1M phosphate buffer containing 0.5 mg/ml EMSE and 1 U/ml laccase and the mixture was incubated at 37° C. for 5 minutes. The absorption of the reaction solution at λmax was measured. As a control, 5-aminosalicylic acid was used and the reaction of the compound with 2,6-xylenol was carried out in the presence of metaperiodate under strong alkaline conditions.

[2] = target: T1, γ-glutamyltranspeptidase (γ-GTP) (Homo sapiens, UniProt P19440); assay: γ-GTP determination in serum (Example 3); assay type: biochemical; conditions: found with the compound as substrate; standard serum 235 mU/ml; 37° C., 5 minutes; wavelength of Table 2
T1 construct: from tissue; host or cells: serum
T1 sequence (P19440 1-380 limits assumed): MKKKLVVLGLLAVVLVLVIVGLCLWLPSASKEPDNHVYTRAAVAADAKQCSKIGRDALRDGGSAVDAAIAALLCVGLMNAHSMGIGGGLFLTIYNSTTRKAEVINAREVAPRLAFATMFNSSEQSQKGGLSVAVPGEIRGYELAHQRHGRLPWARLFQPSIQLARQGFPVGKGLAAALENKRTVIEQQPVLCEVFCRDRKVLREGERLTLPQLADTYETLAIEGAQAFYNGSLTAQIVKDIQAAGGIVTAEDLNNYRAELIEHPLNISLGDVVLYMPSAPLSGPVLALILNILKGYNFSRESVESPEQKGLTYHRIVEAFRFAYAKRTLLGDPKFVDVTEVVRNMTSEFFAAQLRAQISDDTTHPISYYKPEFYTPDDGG
T1 sequence (P19440 381-569 limits assumed): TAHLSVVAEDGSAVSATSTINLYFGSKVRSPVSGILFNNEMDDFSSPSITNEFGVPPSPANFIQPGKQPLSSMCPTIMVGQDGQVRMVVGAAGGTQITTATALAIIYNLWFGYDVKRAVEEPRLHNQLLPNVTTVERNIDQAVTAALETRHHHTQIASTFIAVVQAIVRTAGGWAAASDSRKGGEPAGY
Description: In this example, 500 mg of compound Nos. 1, 3, 5, 7 and 9 each and 500 mg of glycylglycine were dissolved in 100 ml (pH=7.7) and 0.1M phosphate buffer. The resultant solutions were designated A-1, A-3, A-5, A-7 and A-9, respectively. 50 mg of 3-{N-(m-tolyl)-N-ethyl}amino-2-hydroxypropane sulfonic acid was dissolved in 100 ml of phosphate buffer solution to obtain solution B. 50 mg/ml sodium meta-periodate containing 1N-HCl solution was prepared as solution C.
6 ml of solution A-1, A-3, A-5, A-7 or A-9 was equally poured to 3 test tubes. The samples were incubated at 37° C. and to the solution was added […] of (a) serum sample (b) standard serum or (c) water. The mixtures were stirred and heated for 5 minutes. After 5 minutes had passed, 1 ml of solution B and 1 ml of solution C were added to each of the mixtures and the mixtures were incubated for 10 minutes after stirring. As the standard serum, a serum having 235 mU/ml of γ-GTP was used.
The γ-GTP activity of the serum sample can be calculated by the following equation. [formula]

[3] = tested on: leucine aminopeptidase (LAP); assay: LAP determination in serum, absorption change per minute (Example 1); assay type: biochemical
Description: 3 ml of the reagent solution was incubated at 37° C. for ten minutes. To the solution was added 0.05 ml of a serum sample and the mixture was immediately stirred and the change in absorption of the solution at 745 nm was measured for one minute.
LAP activity in the sample can be calculated using the following equation: [formula] ΔE means the amount of absorption change per minute.
The same procedures as described above were repeated except that the following materials were used. […]

What does the source list for `CC(C)C[C@H](N)C(=O)Nc1ccc(O)c(C(=O)O)c1` [Control, reference compound]?
ST: Stability of pigment (Stability of pigment): 90%; solubility (Solubility of substrate): < 20 mg/mL; λmax: Maximum wavelength [1]: 615 nm

For `CC(C)C[C@H](N)C(=O)Nc1ccc(N(CCS(=O)(=O)O)CCS(=O)(=O)O)c(C#N)c1` [compound 11], which “ST: Stability of pigment” value (Stability of pigment) is on record?
Its value is 95%.

And the solubility (Solubility of substrate)?
Its solubility is greater than 200 mg/mL.

And the “λmax: Maximum wavelength” value [1]?
The value was 640 nm.

Which “ST: Stability of pigment” value (Stability of pigment) does the source give for `CC(C)C[C@H](N)C(=O)Nc1ccc(N(C)CCCS(=O)(=O)O)cc1` [compound 4] here?
The value was greater than 96%.

And the solubility (Solubility of substrate)?
The solubility was 65 mg/mL (≈ 182 mM).

And the “λmax: Maximum wavelength” value [1]?
The value was 750 nm.

Which “γ-GTP activity of the serum sample” value [2] does the source give for `N[C@@H](CCC(=O)Nc1ccc(N(CCCS(=O)(=O)O)CCCS(=O)(=O)O)c(S(=O)(=O)O)c1)C(=O)O` [compound 7] here?
The value was 240 mU/ml.

What about the “ST: Stability of pigment” value (Stability of pigment) of the same compound?
The value was 93%.

And the solubility (Solubility of substrate)?
The solubility was greater than 20 mg/mL.

And the “λmax: Maximum wavelength” value [1]?
Its value is 680 nm.

With `Cc1cc(NC(=O)[C@@H](N)CC(C)C)ccc1N(CCS(=O)(=O)O)CCS(=O)(=O)O` [compound 12] as the compound, how does the “ST: Stability of pigment” value (Stability of pigment) read?
Its value is greater than 98%.

And the solubility (Solubility of substrate)?
Its solubility is greater than 200 mg/mL.

And the “λmax: Maximum wavelength” value [1]?
Its value is 715 nm.

Which “amount of absorption change per minute” value ([3]; Serum (2), same wavelengths) does the source give for `CC(C)C[C@H](N)C(=O)Nc1ccc([N+](=O)[O-])cc1` [(b), L-leucil-p-nitroanilide] here?
Its value is 0.0054.

What about the “amount of absorption change per minute” value ([3]; Serum (3), same wavelengths) of the same compound?
Its value is 0.0090.

And the “amount of absorption change per minute” value ([3]; Serum (4), same wavelengths)?
The value was 0.0089.

And the “amount of absorption change per minute” value ([3]; Serum (5), same wavelengths)?
The value was 0.0071.

And the “amount of absorption change per minute” value ([3]; Serum (6), same wavelengths)?
Its value is 0.0071.

And the “amount of absorption change per minute” value ([3]; Serum (7), same wavelengths)?
The value was 0.0074.

And the “amount of absorption change per minute” value ([3]; Serum (8), same wavelengths)?
The value was 0.0086.

And the “amount of absorption change per minute” value ([3]; Serum (9), same wavelengths)?
Its value is 0.0082.

And the “amount of absorption change per minute” value ([3]; Serum (10), same wavelengths)?
The value was 0.0079.

What about the “amount of absorption change per minute” value ([3]; Serum(1), 37° C., 745 nm Compound No. 2, 635 nm (a), 565 nm (b), 675 nm (c)) of the same compound?
Its value is 0.0071.

With `COC(=O)c1cc(NC(=O)[C@@H](N)CC(C)C)ccc1N(CCCCS(=O)(=O)O)CCCCS(=O)(=O)O` [compound 13] as the compound, how does the “ST: Stability of pigment” value (Stability of pigment) read?
The value was greater than 98%.

What about the solubility (Solubility of substrate) of the same compound?
The solubility was greater than 200 mg/mL.

And the “λmax: Maximum wavelength” value [1]?
Its value is 705 nm.

With `CC(C)C[C@H](N)C(=O)Nc1ccc(N(CCCS(=O)(=O)O)CCCS(=O)(=O)O)c(S(=O)(=O)O)c1` [compound 8] as the compound, how does the “ST: Stability of pigment” value (Stability of pigment) read?
The value was 93%.

What about the solubility (Solubility of substrate) of the same compound?
The solubility was greater than 200 mg/mL.

What about the “λmax: Maximum wavelength” value [1] of the same compound?
The value was 680 nm.
